According to patent US9334273B1, “Efficient and stereoselective synthesis of 2′-fluoro-6′-methylene-carbocyclic adenosine (FMCA)” (UNIVERSITY OF GEORGIA RESEARCH FOUNDATION, INC., priority 2014, dated 2016):

Legend:
[1] = tested on: entecavir resistant triple mutant (L180M+M204V+S202G) HBV; conditions: cited from earlier work; for EC50: in vitro, entecavir resistant triple mutant (L180M+M204V+S202G)
[2] = tested on: HBV wild type as well as resistant mutants; conditions: both wild type as well as resistant mutants; cited from earlier work

Structure (SMILES) | melting point | EC50 [1] | anti-HBV efficacy [2] | fold less effective against the mutant in comparison to wild type ([1]; triple mutant (L180M+M204V+S202G) vs wild type)
C=C1[C@@H](n2cnc3c(N)ncnc32)C(F)C(O)[C@H]1CO (single isomer, unassigned; (+)) [FMCA, (+)-9-[(1′R, 2′R, 3′R, 4′R)-2′-Fluoro-3′-hydroxy-4′-(hydroxymethyl)-5′-methylenecyclo-pentan-1′-yl]-adenine] | 215 to 218 °C (dec.) | 670 nM | demonstrated the anti-HBV efficacy | 
C=C1C(COP(=O)(N[C@@H](C)C(=O)OC)Oc2ccccc2)C(O)C(F)C1n1cnc2c(N)ncnc21 (stereo partly drawn) [FMCAP] |  | 54 nM | demonstrated the anti-HBV efficacy | 
C=C1[C@H](CO)[C@@H](O)C[C@@H]1n1cnc2c(=O)[nH]c(N)nc21 [entecavir, reference compound] |  |  |  | 150 fold
